We go through 21 molecules from patent publication US8273774B2, “Phenoxypyridinylamide compounds” (AstraZeneca AB, priority 2008, dated 2012).

recombinant Human Phosphodiesterase B2 (PDE4B2), sequence (Q07343 1-564 isoform Q07343-2): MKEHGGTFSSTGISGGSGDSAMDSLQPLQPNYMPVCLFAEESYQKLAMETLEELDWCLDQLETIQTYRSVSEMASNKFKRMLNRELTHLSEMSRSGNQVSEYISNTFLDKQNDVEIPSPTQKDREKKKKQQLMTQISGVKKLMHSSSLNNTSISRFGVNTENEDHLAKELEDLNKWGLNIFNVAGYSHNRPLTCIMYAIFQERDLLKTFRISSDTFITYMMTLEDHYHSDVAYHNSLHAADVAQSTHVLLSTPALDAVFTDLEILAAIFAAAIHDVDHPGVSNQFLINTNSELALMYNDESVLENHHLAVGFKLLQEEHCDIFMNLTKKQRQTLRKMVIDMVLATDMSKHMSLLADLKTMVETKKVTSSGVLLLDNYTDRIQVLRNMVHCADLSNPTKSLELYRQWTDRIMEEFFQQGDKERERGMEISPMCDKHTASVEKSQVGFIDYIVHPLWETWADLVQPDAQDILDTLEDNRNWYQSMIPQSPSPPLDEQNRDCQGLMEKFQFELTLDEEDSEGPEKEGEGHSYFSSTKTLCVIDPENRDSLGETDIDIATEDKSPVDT

The test deals with recombinant Human Phosphodiesterase B2 (PDE4B2) (Homo sapiens, UniProt Q07343). Kind of test: Human Phosphodiesterase B2 Radiometric Assay. Type of test: biochemical. To be noted: 0.1 μg/mL recombinant PDE4B2; preincubated at 30 C for 30 min; [3H]cyclic AMP 8 nM, stopped after 20 min; yttrium silicate SPA beads; read-out: PDE4B2 pIC50 (converted). The procedure:
Human Phosphodiesterase B2 Radiometric Assay
The assay uses recombinant Human Phosphodiesterase B2 (PDE4B2) produced in house (PrAZL0163), stored at −20° C. This assay is based on the observation that 5′AMP, the product of the reaction catalysed by PDE4, binds preferentially to yttrium silicate SPA beads (Amersham Biosciences, UK) compared to the substrate, cAMP. Compounds at the appropriate concentration were preincubated at 30 C for 30 min with an assay buffer containing 50 mM HEPES (pH 7.5), 8.3 mM MgCl2, 1.7 mM EGTA, 0.01% (w/v) Brij®35 and 0.1 μg/mL recombinant PDE4B2. The reaction was started by the addition of [3H]cyclic AMP to give a final concentration of 8 nM, and was stopped 20 min after the addition of the substrate by the addition of yttrium silicate SPA beads containing 18 mM Zn SO4. Bound […] was measured using a Topcount NXT (Packard Bioscience, UK). pIC50 values (presented in Table 2) were determined using Xlfit3 curve fitting, using model 205.
Consider `Cc1ccc(O)c(C(=O)N[C@H]2CC[C@@H](NC(=O)c3cc(F)cnc3Oc3cccc(-c4ccc(O)c(CN5C[C@@H](C)N[C@@H](C)C5)c4)c3)CC2)c1` [Example 95, 2-(3′-(((3S,5R)-3,5-dimethylpiperazin-1-yl)methyl)-4′-hydroxybiphenyl-3-yloxy)-5-fluoro-N-((1s,4s)-4-(2-hydroxy-5-methylbenzamido)cyclohexyl)nicotinamide], for which the IC50 is 200 pM.
Regarding `Cc1nc(C(=O)N[C@H]2CC[C@@H](NC(=O)c3cc(F)cnc3Oc3cccc(-c4ccc(O)c(CN5C[C@@H](C)N[C@@H](C)C5)c4)c3)CC2)cs1` [Example 68, N-((1s,4s)-4-(2-(3′-(((3R,5S)-3,5-dimethylpiperazin-1-yl)methyl)-4′-hydroxybiphenyl-3-yloxy)-5-fluoronicotinamido)cyclohexyl)-2-methylthiazole-4-carboxamide], the IC50 is 25.1 pM.
The same measure for `CC(C)c1nc(C(=O)N[C@H]2CC[C@@H](NC(=O)c3cc(F)cnc3Oc3cccc(-c4ccc(O)cc4CN4CCOCC4)c3)CC2)cs1` [Example 39, N-((1s,4s)-4-(5-fluoro-2-(4′-hydroxy-2′-(morpholinomethyl)biphenyl-3-yloxy)nicotinamido)cyclohexyl)-2-isopropylthiazole-4-carboxamide]: 20 pM; for `CC(C)c1nc(C(=O)N[C@H]2CC[C@@H](NC(=O)c3cc(F)cnc3Oc3cccc(-c4ccc(CN5C[C@@H](C)N[C@@H](C)C5)cc4CN4CCOCC4)c3)CC2)cs1` [Example 190, N-((1s,4s)-4-(2-(4′-(((3S,5R)-3,5-dimethylpiperazin-1-yl)methyl)-2′-(morpholinomethyl)biphenyl-3-yloxy)-5-fluoronicotinamido)cyclohexyl)-2-isopropylthiazole-4-carboxamide]: 39.8 pM.
The same measure for `Cc1nc(C(=O)N[C@H]2CC[C@@H](NC(=O)c3cc(F)cnc3Oc3cccc(-c4ccc(O)cc4CN(C)C(C)(C)C)c3)CC2)cs1` [Example 26, N-((1s,4s)-4-(2-(2′-((tert-butyl(methyl)amino)methyl)-4′-hydroxybiphenyl-3-yloxy)-5-fluoronicotinamido)cyclohexyl)-2-methylthiazole-4-carboxamide]: 200 pM; for `Cc1cc(C(=O)N[C@H]2CC[C@@H](NC(=O)c3cc(F)cnc3Oc3cccc(-c4ccc(CN5CCN(C(C)C)CC5)cc4CN4CCOCC4)c3)CC2)nn1C` [Example 183, N-((1s,4s)-4-(1,5-Dimethyl-1H-pyrazole-3-carboxamido)cyclohexyl)-5-fluoro-2-(4′-((4-isopropylpiperazin-1-yl)methyl)-2′-(morpholinomethyl)biphenyl-3-yloxy)nicotinamide]: 200 pM; for `Cc1cc(C(=O)N[C@H]2CC[C@@H](NC(=O)c3cc(F)cnc3Oc3cccc(-c4ccc(CCN5CCN(C(C)C)CC5)cc4)c3)CC2)nn1C` [Example 83, N-((1s,4s)-4-(1,5-dimethyl-1H-pyrazole-3-carboxamido)cyclohexyl)-5-fluoro-2-(4′-(2-(4-isopropylpiperazin-1-yl)ethyl)biphenyl-3-yloxy)nicotinamide]: 25.1 pM.
The same measure for `O=C(N[C@H]1CC[C@@H](NC(=O)c2cc(F)cnc2Oc2cccc(-c3ccc(CCCNCCCO)cc3)c2)CC1)c1cc2ccccn2n1` [Example 159, N-((1s,4s)-4-(5-Fluoro-2-(4′-(3-(3-hydroxypropylamino)propyl)biphenyl-3-yloxy)nicotinamido)cyclohexyl)pyrazolo[1,5-a]pyridine-2-carboxamide]: 50.1 pM; for `Cc1cccc2nc(C(=O)N[C@H]3CC[C@@H](NC(=O)c4cc(F)cnc4Oc4cccc(-c5ccc(CN6CCCC6)cc5)c4)CC3)cn12` [Example 50, N-((1s,4s)-4-(5-fluoro-2-(4′-(pyrrolidin-1-ylmethyl)biphenyl-3-yloxy)nicotinamido)cyclohexyl)-5-methylimidazo[1,2-a]pyridine-2-carboxamide]: 316 pM; for `COc1c(CN2C[C@@H](C)N[C@@H](C)C2)cccc1-c1cccc(Oc2ncc(F)cc2C(=O)N[C@H]2CC[C@@H](NC(=O)c3cc(C)n(C)n3)CC2)c1` [Example 106, N-((1s,4s)-4-(1,5-dimethyl-1H-pyrazole-3-carboxamido)cyclohexyl)-2-(3′-(((3S,5R)-3,5-dimethylpiperazin-1-yl)methyl)-2′-methoxybiphenyl-3-yloxy)-5-fluoronicotinamide]: 251 pM.
Take `Cc1cccc2nc(C(=O)N[C@H]3CC[C@@H](NC(=O)c4cc(F)cnc4Oc4cccc(-c5ccc(CN6CCCOCC6)cc5)c4)CC3)cn12` [Example 46, N-((1s,4s)-4-(2-(4′-((1,4-oxazepan-4-yl)methyl)biphenyl-3-yloxy)-5-fluoronicotinamido)cyclohexyl)-5-methylimidazo[1,2-a]pyridine-2-carboxamide]: the IC50 is 126 pM.
The same measure for `Cc1cc(C(=O)N[C@H]2CC[C@@H](NC(=O)c3cc(F)cnc3Oc3cccc(-c4ccc(CN5C[C@@H](C)N[C@@H](C)C5)cc4)c3)CC2)nn1C` [Example 62, N-((1s,4s)-4-(1,5-dimethyl-1H-pyrazole-3-carboxamido)cyclohexyl)-2-(4′-(((3S,5R)-3,5-dimethylpiperazin-1-yl)methyl)biphenyl-3-yloxy)-5-fluoronicotinamide]: 25.1 pM; for `Cc1cccc(C(=O)N[C@H]2CC[C@@H](NC(=O)c3cc(F)cnc3Oc3cccc(-c4ccc(CCCN5CCNCC5)cc4)c3)CC2)n1` [Example 153, N-((1s,4s)-4-(5-fluoro-2-(4′-(3-(piperazin-1-yl)propyl)biphenyl-3-yloxy)nicotinamido)cyclohexyl)-6-methylpicolinamide]: 31.6 pM; for `C[C@@H]1CN(Cc2cccc(-c3cccc(Oc4ncc(F)cc4C(=O)N[C@H]4CC[C@@H](NC(=O)c5cc6ccccn6n5)CC4)c3)c2)C[C@H](C)N1` [Example 151, N-((1s,4s)-4-(2-(3′-(((3S,5R)-3,5-dimethylpiperazin-1-yl)methyl)biphenyl-3-yloxy)-5-fluoronicotinamido)cyclohexyl)pyrazolo[1,5-a]pyridine-2-carboxamide]: 63.1 pM.
As for `Cc1cc(C(=O)N[C@H]2CC[C@@H](NC(=O)c3cc(F)cnc3Oc3cccc(-c4ccc(CCCN5C[C@@H](C)N[C@@H](C)C5)cc4)c3)CC2)nn1C` [Example 81, N-((1s,4s)-4-(1,5-dimethyl-1H-pyrazole-3-carboxamido)cyclohexyl)-2-(4′-(3-((3S,5R)-3,5-dimethylpiperazin-1-yl)propyl)biphenyl-3-yloxy)-5-fluoronicotinamide], the IC50 is 31.6 pM.
The value for `Cc1cc(C)n2ncc(C(=O)N[C@H]3CC[C@@H](NC(=O)c4cc(F)cnc4Oc4cccc(-c5ccc(CN6CCCN(CCO)CC6)cc5CN5CCSCC5)c4)CC3)c2n1` [Example 182, N-((1s,4s)-4-(5-Fluoro-2-(4′-((4(2-hydroxyethyl)-1,4-diazepan-1-yl)methyl)-2′-(thiomorpholinomethyl)biphenyl-3-yloxy)nicotinamido)cyclohexyl)-5,7-dimethylpyrazolo[1,5-a]pyrimidine-3-carboxamide] was 39.8 pM.
The value for `CN(C)CCN(C)Cc1ccc(-c2cccc(Oc3ncc(F)cc3C(=O)N[C@H]3CC[C@@H](NC(=O)c4cn5c(n4)CCCC5)CC3)c2)cc1` [Example 105, N-((1s,4s)-4-(2-(4′-(((2-(dimethylamino)ethyl)(methyl)amino)methyl)biphenyl-3-yloxy) 5-fluoronicotinamido)cyclohexyl)-5,6,7,8-tetrahydroimidazo[1,2-a]pyridine-2-carboxamide] was 631 pM.
The same measure for `Cc1nc(C(=O)N[C@H]2CC[C@@H](NC(=O)c3cc(F)cnc3Oc3cccc(-c4cc(O)cc(CN5C[C@@H](C)N[C@@H](C)C5)c4)c3)CC2)cs1` [Example 65, N-((1s,4s)-4-(2-(3′-(((3R,5S)-3,5-dimethylpiperazin-1-yl)methyl)-5′-hydroxybiphenyl-3-yloxy)-5-fluoronicotinamido)cyclohexyl)-2-methylthiazole-4-carboxamide]: 39.8 pM; for `C[C@@H]1CN(CCCc2ccc(-c3cccc(Oc4ncc(F)cc4C(=O)N[C@H]4CC[C@@H](NC(=O)c5csc(CO)n5)CC4)c3)cc2)C[C@H](C)N1` [Example 149, N-((1s,4s)-4-(2-(4′-(3-((3S,5R)-3,5-dimethylpiperazin-1-yl)propyl)biphenyl-3-yloxy)-5-fluoronicotinamido)cyclohexyl)-2-(hydroxymethyl)thiazole-4-carboxamide]: 31.6 pM; for `Cc1cc(C(=O)N[C@H]2CC[C@@H](NC(=O)c3cc(F)cnc3Oc3cccc(-c4cccc(CN5C[C@@H](C)N[C@@H](C)C5)c4Cl)c3)CC2)nn1C` [Example 107, 2-(2′-chloro-3′-(((3S,5R)-3,5-dimethylpiperazin-1-yl)methyl)biphenyl-3-yloxy)-N-((1s,4s)-4-(1,5-dimethyl-1H-pyrazole-3-carboxamido)cyclohexyl)-5-fluoronicotinamide]: 158 pM.
Consider `Cc1cccc2nc(C(=O)N[C@H]3CC[C@@H](NC(=O)c4cc(F)cnc4Oc4cccc(-c5ccc(CN6C[C@@H](C)N[C@@H](C)C6)cc5)c4)CC3)cn12` [Example 48, N-((1s,4s)-4-(2-(4′-(((3S,5R)-3,5-dimethylpiperazin-1-yl)methyl)biphenyl-3-yloxy)-5-fluoronicotinamido)cyclohexyl)-5-methylimidazo[1,2-a]pyridine-2-carboxamide], for which the IC50 was 63.1 pM.
